Measured values taken from paper PMC3609778, “Truncated and Helix-Constrained Peptides with High Affinity and Specificity for the cFos Coiled-Coil of AP-1” (PLoS ONE, 2013).
Entries after “also recorded” stand apart in the source; their conditions may differ. Where a SMILES comes first, the peptide text is derived from it. Bridges are numbered along the chain shown (N, C = ends). [ ]: non-standard residue; d: D form. Cha = N[C@@H](CC1CCCCC1)C(=O)O

What was measured:
cJun = assay: CD spectra and thermal denaturation of peptide-cJun mixtures (specificity); type: binding; conditions: equimolar with cJun
Procedure: (§1) To establish if the truncated and constrained peptides retained the interaction specificity of the JunWCANDI parent peptide, peptides capable of interacting with cFos were also incubated at equimolar concentrations with cJun and monitored via CD spectra. […] In addition, a dimer exchange experiment was performed for the most helical peptide 24. Spectra for a cJun-peptide solution and a cFos solution should, upon mixing, generate an averaged spectrum if there was no dimer exchange. […] Spectra for both mixtures can be superimposed (Figure S4).
Supplementary file pone.0059415.s002.tiff: Figure S2 Raw thermal melting data for homo and heterodimeric complexes with cJun for constrained peptides 1 , 2 , 8 , 9, 10 , 11, 12, 17, 20, 22, and 24 . […] (TIFF) Click here for additional data file.
Supplementary file pone.0059415.s003.tiff: Figure S3 CD spectra as MRE both in isolation and as a mixture with cJun. From these raw data it is also clear that no interaction is occurring between constrained peptides and cJun. Rather, specta appear as averages of their homodimeric components (i.e. superimpose with the homomeric averages). We observe no heteromeric helical signal (red) that exceeds the average (black dotted line) of cJun (black) and the constrained peptide (blue), that would be anticipated for a non-interacting pair. (TIFF) Click here for additional data file.
Supplementary file pone.0059415.s005.doc: Table S1 Helical Data obtained via Circular Dichroism. Shown are A) homo and B) heteromeric samples. […] A ratio higher than 1 is generally indicated evidence that a coiled coil has formed, while a ratio of less than 0.9 is taken to indicate the presence of isolated helices. Shown in column two are the calculated fractional helicities taken from the Molar Residue Ellipticity at […]. Fraction helicity (ƒH) can be calculated as ƒH = (θ222−θc)/(θ222∞−θc) where θ222∞ = (−44000+250*T)*(1−k/Nr) and θc = 2220–(53*T). […] Measured helicity for the original JunWCANDI peptide and for the template on which the hydrocarbon constraints have been introduced. […]

cFos [1] = molecular target: T1, cFos (Homo sapiens, UniProt P01100); assay: Circular dichroism spectra of peptide-cFos mixtures; type: binding; conditions: mixture with cFos; for Peptide-cFos Ɵ222/208 (20ºC): CD ratio, 20 °C; for Peptide-cFos Fraction helical (ƒH): CD 222 nm, 20°C, 150 µM total peptide
Procedure: (§2) Circular dichroism (CD) spectroscopy was conducted with an Applied Photophysics Chirascan CD spectroploarimeter (Leatherhead, U.K.) using a 200 µL sample in a CD cell with a 1 mm path length (Hellma, Müllheim Germany). Samples contained 150 µM total peptide concentration suspended in 10 mM potassium phosphate and 100 mM potassium fluoride at pH 7. The CD spectra of the homodimeric and heterodimeric complexes were scanned between 300 nm and 190 nm at 20°C (for both pre- and post-melt samples to check for reversibility of unfolding) and at −8°C to assess helical levels and coiled-coil structure (see Figure 4).
(§3) Thermal denaturation data and spectra for the cFos homotypic complex (black), helix constrained peptide (blue), and heteromeric complex (red) were recorded using 200 µL of sample at 150µM total peptide concentration (Figure 4, Figure S1). Next, 100 µL of each solution was mixed and the spectra taken such that the final total peptide concentration was also 150 µM. More experimental procedures can be found in File S1.
(§4) Supplementary file pone.0059415.s005.doc: Table S1 Helical Data obtained via Circular Dichroism. Shown are A) homo and B) heteromeric samples. […] A ratio higher than 1 is generally indicated evidence that a coiled coil has formed, while a ratio of less than 0.9 is taken to indicate the presence of isolated helices. Shown in column two are the calculated fractional helicities taken from the Molar Residue Ellipticity at […]. Fraction helicity (ƒH) can be calculated as ƒH = (θ222−θc)/(θ222∞−θc) where θ222∞ = (−44000+250*T)*(1−k/Nr) and θc = 2220–(53*T). In these equations the wavelength dependent constant k = 2.4 (at 222 nm), Nr = the number of residues, and T = 20 degrees Celsius (293 K). The 222/208 ratio is used to provide evidence on whether the helices are monomeric or are adopting a quaternary structure. Measured helicity for the original JunWCANDI peptide and for the template on which the hydrocarbon constraints have been introduced. […] The N- and C-capping motifs have been removed for the constrained since they are considered to be largely redundant upon their introduction. (DOC) Click here for additional data file.

[2] = Circular dichroism helicity of peptide in isolation (homotypic); type: physicochemical; conditions: for Homotypic Ɵ222/208 (20ºC): CD ratio, 20 °C; for Homotypic Ɵ222/208 (20ºC) / Fraction helical (ƒH), homotypic: peptide in isolation; for Fraction helical (ƒH), homotypic: from CD molar residue ellipticity at 222 nm
Procedure: as §2, §4

Serum stability = type: in vitro ADME; conditions: 200 µL of 1 mg/ml peptide in water added to 800 µL human serum, 37°C, aliquots 0-24 h, acetonitrile/water 3:1, LC-MS-MS total ion counts
Procedure: Stock solutions of 12 and 24 in both constrained forms and linear forms lacking constraints were prepared in water (1 mg/ml), 200 µL was added to human serum (800 µL) and incubated at 37°C. Aliquots (100 µL) of this diluted serum were removed at 0, 0.5, 1, 2, 4, 16, and 24 hours and a mixture of acetonitrile/water 3∶1 (300 µL) was added to each aliquot before centrifuging (17000 rpm, 15 min). Aliquots (100 µL) of the supernatant were then analysed by LC-MS-MS after passing through a 2.1×150 mm Phenomenex 300A C18 5 µm column at 10% per minute linear gradient from 0–100% acetonitrile over 12 minutes. The amount of starting material was quantified by determination of total ion counts for the m/3+ and m/4+ ion for each peptide (Figure 3).

cFos [3] = molecular target: T1, cFos; assay: Dimer exchange experiments between cJun, cFos and constrained peptide (CD spectra); type: binding; conditions: equimolar mixtures, CD spectra compared with average of constituent spectra
Procedure: as §1
(TIFF) Click here for additional data file.

cFos [4] = molecular target: T1, cFos; assay: Thermal denaturation (CD at 222 nm) of peptide-cFos mixtures; type: binding; conditions: judged from thermal denaturation profiles and CD spectra of mixtures with cFos
Procedure: as §3

cFos [5] = molecular target: T1, cFos; assay: Isothermal Titration Calorimetry (ITC) of peptides with cFos; type: binding; conditions: 20°C
Procedure: Figure 5 Isothermal Titration Calorimetry (ITC) analysis of leucine zipper domain interactions between constrained peptides and cFos. Shown are isotherms for all ten measureable heterodimers (1, 2, 8, 10, 11, 12, 17, 20, 22, and 24) injected into a cell containinginto cFos. The top and bottom panels show, respectively, raw data after baseline correction. During ITC experiments, approximately 200–600 µM of peptide A was injected in 30–40×5 µl batches from the injection syringe into the cell, which contained 10–40 µM cFos. Both partners were in a 10 mM Potassium Phosphate buffer, 100 mM Potassium Fluoride at pH 7. Experiments were undertaken at 20°C. […]
ITC Measurements - ITC measurements were made using a Microcal VP-ITC instrument with data collected and processed using the Origin 7.0 software package. […] The change in thermal power as a function of each injection was automatically recorded using the Microcal Origin software and the raw data were integrated to yield ITC isotherms of heat release per injection as a function of Fos to Jun Molar ratio (Figure 5). […]
where R is the universal molar gas constant (1.9872 cal·K^-1·mol^-1), T is the absolute temperature in Kelvin (293.15 K) and KD is the dissociation constant of binding with units of mol·L^-1. Finally, the entropic contribution (TΔS) to the free energy of binding was calculated using the derived values of ΔH and ΔGbind.

T1 sequence (P01100 whole entry): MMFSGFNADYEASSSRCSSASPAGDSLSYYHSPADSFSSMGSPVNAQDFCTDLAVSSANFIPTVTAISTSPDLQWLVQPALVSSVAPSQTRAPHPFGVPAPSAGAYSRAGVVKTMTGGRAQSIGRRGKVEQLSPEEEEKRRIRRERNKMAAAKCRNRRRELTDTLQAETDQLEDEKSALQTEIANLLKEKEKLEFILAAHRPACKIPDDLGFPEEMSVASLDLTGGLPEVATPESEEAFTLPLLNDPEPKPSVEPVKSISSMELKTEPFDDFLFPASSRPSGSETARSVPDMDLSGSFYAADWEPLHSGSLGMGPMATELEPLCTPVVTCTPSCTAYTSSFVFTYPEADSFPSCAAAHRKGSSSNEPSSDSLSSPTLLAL

Compound | interaction with cJun (in words) (cJun) | Peptide-cFos Ɵ222/208 (20ºC) (cFos [1]) | Peptide-cFos Fraction helical (ƒH) (cFos [1]) | Homotypic Ɵ222/208 (20ºC) [2] | Fraction helical (ƒH), homotypic ([2]; 20°C, 150 µM, pH 7) | stability in human serum (Serum stability) | dimer exchange on mixing cFos-cFos with cJun-peptide (cFos [3]) | dimer exchange on mixing cJun-cJun with cFos-peptide (cFos [3]) | interaction with cFos (in words) (cFos [4]) | helicity of peptide in isolation ([2]; from CD spectra, 20°C, 150 µM, pH 7) | TΔS [ΔH – ΔG] (cFos [5]; calculated according to TΔS = ΔH−ΔG) | ΔH (cFos [5]; pH 7)
CC[C@H](C)[C@H](NC(=O)[C@H](Cc1c[nH]cn1)NC(=O)[C@@H]1CC(=O)NCCCC[C@H](NC(=O)[C@H](C)NC(=O)[C@H](CCCCN)NC(=O)[C@H](CO)NC(=O)[C@H](CCCNC(=N)N)NC(=O)[C@H](CC2CCCCC2)NC(=O)[C@@H]2CC(=O)NCCCC[C@H](NC(=O)[C@H](CCCCN)NC(=O)[C@H](CC(C)C)NC(C)=O)C(=O)N[C@@H](CCC(=O)O)C(=O)N[C@@H]([C@@H](C)CC)C(=O)N[C@@H](Cc3ccc(O)cc3)C(=O)N2)C(=O)N[C@@H](CCSC)C(=O)N[C@@H](CC(C)C)C(=O)N[C@@H](CCCNC(=N)N)C(=O)N1)C(=O)N[C@@H](C)C(=O)N[C@@H](CCC(N)=O)C(=O)N[C@@H](CC(C)C)C(N)=O [compound 17] (Ac-LKKEIYD[Cha]RSKAKMLRDHIAQL-NH2; lactam 3-7, 13-17) | none of the peptides form a stable interaction with cJun | 0.90 | 0.40 | 0.91 | 0.42 | – | – | – | – | – | – | –
CC[C@H](C)[C@@H]1NC(=O)[C@H](Cc2c[nH]cn2)NC(=O)[C@@H](NC(=O)[C@H](CCCNC(=N)N)NC(=O)[C@H](CC(C)C)NC(=O)[C@@H]2CC(=O)NCCCC[C@H](NC(=O)[C@H](CCCNC(=N)N)NC(=O)[C@H](CC(C)C)NC(=O)[C@@H]3CC(=O)NCCCC[C@H](NC(=O)[C@H](CCCNC(=N)N)NC(=O)[C@H](CC4CCCCC4)NC(C)=O)C(=O)N[C@@H](CCC(=O)O)C(=O)N[C@@H]([C@@H](C)CC)C(=O)N[C@@H](Cc4ccc(O)cc4)C(=O)N3)C(=O)N[C@@H](CCCCN)C(=O)N[C@@H](C)C(=O)N[C@@H](CC(N)=O)C(=O)N2)CCCCNC(=O)C[C@@H](C(=O)N[C@@H](CC2CCCCC2)C(N)=O)NC(=O)[C@H](C)NC1=O [compound 24, Ac-cyclo-(3,7; 10,14; 17,21)-ChaR[KEIYD]LR[KKAND]LR[KHIAD]Cha-NH2] (Ac-[Cha]RKEIYDLRKKANDLRKHIAD[Cha]-NH2; lactam 3-7, 10-14, 17-21) | none of the peptides form a stable interaction with cJun | 1.00 | 0.52 | 1.08 | 0.69 | resistant to proteolytic degradation in serum; also recorded: fairly stable in human serum over 4 h; also recorded: much more stable in human serum at 37° than the same peptide lacking the constraints | dimer exchange did occur; also recorded: dimer exchange has occurred | no change in binding partner for peptide had occurred; also recorded: no change has occurred | – | – | – | –
CC[C@H](C)[C@H](NC(=O)[C@H](Cc1c[nH]cn1)NC(=O)[C@@H]1CC(=O)NCCCC[C@H](NC(=O)[C@H](C)NC(=O)[C@H](CCCCN)NC(=O)[C@H](CO)NC(=O)[C@H](CCCNC(=N)N)NC(=O)[C@H](CC(C)C)NC(=O)[C@@H]2CC(=O)NCCCC[C@H](NC(=O)[C@H](CCCCN)NC(=O)[C@H](CC3CCCCC3)NC(C)=O)C(=O)N[C@@H](CCC(=O)O)C(=O)N[C@@H]([C@@H](C)CC)C(=O)N[C@@H](Cc3ccc(O)cc3)C(=O)N2)C(=O)N[C@@H](CCSC)C(=O)N[C@@H](CC(C)C)C(=O)N[C@@H](CCCNC(=N)N)C(=O)N1)C(=O)N[C@@H](C)C(=O)N[C@@H](CCC(N)=O)C(=O)N[C@@H](CC1CCCCC1)C(N)=O [compound 20] (Ac-[Cha]KKEIYDLRSKAKMLRDHIAQ[Cha]-NH2; lactam 3-7, 13-17) | none of the peptides form a stable interaction with cJun | 0.92 | 0.49 | 0.91 | 0.51 | – | – | – | profiles consistent with a strong interaction affinity for cFos | – | – | –
Ac-ASAAELEERAKTLKAEIYELRSKANMLREHIAQLGAP-NH2 [JunWCANDI, reference compound] | – | 0.97 | 0.42 | 0.79 | 0.19 | – | – | – | – | 19% | -6.9 kcal/mol | -14.8 kcal/mol
